Data as given in patent US9603922B2, “Modulation of NKT cell activity with antigen-loaded CD1d molecules” (VACCINEX, INC., priority 2007, dated 2017).

B1: αGalCer/sCD1d: soluble monomeric mouse β2m-CD1d, His-tagged, loaded with αGalCer (protein)
chain: IQKTPQIQVYSRHPPENGKPNILNCYVTQFHPPHIEIQMLKNGKKIPKVEMSDMSFSKDWSFYILAHTEFTPTETDTYACRVKHASMAEPKTVYWDRDMGGGGSGGSGSGGGSEAQQKNYTFRCLQMSSFANRSWSRTDSVVWLGDLQTHRWSNDSATISFTKPWSQGKLSNQQWEKLQHMFQVYRVSFTRDIQELVKMMSPKEDYPIEIQLSAGCEMYPGNASESFLHVAFQGKYVVRFWGTSWQTVPGAPSWLDLPIKVLNADQGTSATVQMLLNDTCPLFVRGLLEAGKSDLEKQEKPVAWLSSVPSSADGHRQLVCHVSGFYPKPVWVMWMRGDQEQQGTHRGDFLPNADETWYLQATLDVEAGEEAGLACRVKHSSLGGQDIILYWSSGSGGHHHHHH

Key:
[1] = tested on: iNKT cells in PBMC; assay: iNKT frequency in peripheral blood during systemic treatment; format: in vivo, mouse; details: PBMC 3 days after third i.v. injection
Description: FIG. 3: iNKT expansion in blood during systemic treatment with αGalCer loaded recombinant CD1d molecules. Mice were bled after the third injection of either PBS (control) αGalCer (0.4 μg), αGalCer/CD1d-anti-Her2 fusion protein (Fusion, 40 μg), or αGalCer/sCD1d (sCD1d, 20 μg). NKT cells were stained in PBMCs using the CD1d-Tetramer-PE and anti CD3 FITC antibody. a representative dot blot of one mouse from each group. b graph representing several mice per group expressed as CD1d tetramer positive and CD3+ cells as percentage of total PBMC.
Increased frequency of iNKT cells during systemic treatment: normally iNKT cells are not detectable in mouse peripheral blood as shown on FIG. 3. In contrast, they became clearly detectable upon systemic treatment with recombinant αGalCer/CD1d molecules, whereas there was no change with αGalCer alone. FIG. 3a gives representative dot plots of FACS staining with CD1d-tetramer+anti-CD3 on PBMC 3 days after the third injection with either PBS, free αGalCer, αGalCer/CD1d-anti HER2, or αGalCer/sCD1d (five mice per group, i.v., injection every 3 days).

[2] = tested on: splenocytes, CD11c+ CD40+ DC; assay: Mature DC (CD11c+ CD40+) in splenocyte cultures of OVA-immunized mice; format: cell-based, mouse; details: same cultures, following restimulation
Description: FIG. 8: αGalCer loaded sCD1d acts as a strong adjuvant for the expansion of antigen-specific T cells upon active immunization. a kinetics of expansion of H-2K^b/OVA specific CTLs. Mice were primed with 200 μg ovalbumin either as such (i.v.) or with MONTANIDE™ adjuvant (3:7 ratio, s.c.) or with 1 μg αGalCer or 20 μg αGalCer/sCD1d (i.v.). Mice were bled every 5-7 days and PBMC were stained with H-2K^b/oVA tetramer+anti-CD8. Results were expressed as tetramer+ and CD8+ […] as a percentage of total CD8+ T cells. Mice were boosted with OVA peptide (20 μg) on day 22 employing the same adjuvants and route of injection as for primary immunization. b Ten days later, mice were sacrificed and splenocytes were cultured another five days either with no stimuli or with the same stimuli and adjuvants as for the in vivo boost. Frequency of OVA specific T cells was measured as in a. c The presence of mature DC in the same cultures as in b was analyzed by surface staining with anti CD11c and anti CD40 antibodies.
Together with active OVA immunization: An adjuvant effect has previously been attributed to free αGalCer and its potential use in vaccination has been proposed (Silk, J. D., et al. J Clin Invest 114:1800-1811 (2004)). […]

Row | Molecule | Frequency of iNKT cells in peripheral blood [1] | Frequency of mature DC (CD11c+CD40+) [2]
1 | CCCCCCCCCCCCCCCCCCCCCCCCCC(=O)N[C@@H](CO[C@H]1O[C@H](CO)[C@H](O)[C@H](O)[C@H]1O)[C@H](O)[C@H](O)CCCCCCCCCCCCCC [αGalCer, α-galactosylceramide, reference compound] | no change | –
2 | B1 | – | increased frequency of mature DC
